Assay results from the supplement of paper PMC6045584.
± gives the standard deviation of the averaged measurements.

How the values were obtained:
LAPATINIB = compound: CS(=O)(=O)CCNCc1ccc(-c2ccc3ncnc(Nc4ccc(OCc5cccc(F)c5)c(Cl)c4)c3c2)o1 [LAPATINIB]; assay: surviving fraction relative to DMSO-only wells; higher = less growth inhibition; details: exposure time: 5 days
How it was run: (§1)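 Tumour cell lines were grown to log phase and seeded at 250–500 cells per well in 384-well plates. They were exposed continuously to inhibitors at 0.5, 1, 5, 10, 50, 100, 500 and 1000 nM for five days, beginning 24 hours after seeding. Surviving fraction is CellTiter-Glo luminescence normalised to the median of DMSO-only wells.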

ABT-737 = compound: CN(C)CC[C@H](CSc1ccccc1)Nc1ccc(S(=O)(=O)NC(=O)c2ccc(N3CCN(Cc4ccccc4-c4ccc(Cl)cc4)CC3)cc2)cc1[N+](=O)[O-] [ABT-737]; assay: as above; details: exposure time: 5 days
How it was run: as §1

Test System	surviving fraction (LAPATINIB; 0.5 nM)	surviving fraction (LAPATINIB; 1 nM)	surviving fraction (LAPATINIB; 5 nM)	surviving fraction (LAPATINIB; 10 nM)	surviving fraction (LAPATINIB; 50 nM)	surviving fraction (LAPATINIB; 100 nM)	surviving fraction (LAPATINIB; 500 nM)	surviving fraction (LAPATINIB; 1000 nM)	surviving fraction (ABT-737; 0.5 nM)	surviving fraction (ABT-737; 1 nM)	surviving fraction (ABT-737; 5 nM)	surviving fraction (ABT-737; 10 nM)	surviving fraction (ABT-737; 50 nM)	surviving fraction (ABT-737; 100 nM)	surviving fraction (ABT-737; 500 nM)	surviving fraction (ABT-737; 1000 nM)
HCC1395 BREAST	0.928 ± 0.083	0.972 ± 0.072	0.998 ± 0.082	0.975 ± 0.16	0.919 ± 0.12	1.09 ± 0.061	1.02 ± 0.083	0.993 ± 0.15	1.15 ± 0.075	1.14 ± 0.053	1.27 ± 0.047	1.25 ± 0.061	1.19 ± 0.024	1.32 ± 0.033	1.12 ± 0.069	1.1 ± 0.065
HCC1806 BREAST	1.01 ± 0.083	1.12 ± 0.028	1.09 ± 0.04	1.09 ± 0.079	0.992 ± 0.018	1.11 ± 0.033	0.715 ± 0.025	0.65 ± 0.082	1.06 ± 0.057	1.02 ± 0.15	1.16 ± 0.081	1.207 ± 0.008	1.17 ± 0.11	1.16 ± 0.067	1.05 ± 0.074	1.13 ± 0.04
HCC1954 BREAST	0.905 ± 0.087	1.08 ± 0.058	1.04 ± 0.023	1.01 ± 0.12	0.823 ± 0.037	0.804 ± 0.092	0.387 ± 0.016	0.387 ± 0.039	1.09 ± 0.11	1.02 ± 0.092	1.21 ± 0.047	1.25 ± 0.033	0.878 ± 0.17	0.917 ± 0.26	0.674 ± 0.15	0.564 ± 0.092
HCT15 LARGE INTESTINE	1.01 ± 0.082	1.12 ± 0.098	1.04 ± 0.059	1.06 ± 0.076	0.988 ± 0.078	1.08 ± 0.07	1.04 ± 0.032	1.05 ± 0.071	1.02 ± 0.1	1.02 ± 0.14	1.02 ± 0.12	1.02 ± 0.17	1.1 ± 0.073	1.08 ± 0.094	1.03 ± 0.11	1.09 ± 0.029
HELA CERVIX	1.08 ± 0.1	1.23 ± 0.065	1.05 ± 0.043	1.04 ± 0.038	1.1 ± 0.029	1.15 ± 0.12	1.16 ± 0.09	1.16 ± 0.037	1.05 ± 0.04	1.05 ± 0.04	1.06 ± 0.017	1.06 ± 0.047	1.14 ± 0.085	1.11 ± 0.084	1.2 ± 0.13	1.16 ± 0.07
HOS BONE	1.017 ± 0.01	1.082 ± 0.01	1.059 ± 0.01	1.03 ± 0.011	1.05 ± 0.023	1.05 ± 0.034	1.039 ± 0.0051	1.04 ± 0.018	1.01 ± 0.028	1.03 ± 0.013	1.03 ± 0.026	1.03 ± 0.02	1.06 ± 0.016	1.084 ± 0.0046	1.08 ± 0.046	1.03 ± 0.021
HOSMNG BONE	0.92 ± 0.06	1.04 ± 0.05	0.88 ± 0.081	0.827 ± 0.12	0.848 ± 0.064	0.867 ± 0.11	0.89 ± 0.084	1.06 ± 0.08	0.879 ± 0.057	0.942 ± 0.099	0.888 ± 0.06	0.893 ± 0.073	0.928 ± 0.072	1 ± 0.075	0.921 ± 0.12	0.944 ± 0.11
HSSYII SYNOVIAL	0.98 ± 0.042	0.943 ± 0.022	0.947 ± 0.051	0.973 ± 0.033	0.947 ± 0.064	1.04 ± 0.087	0.969 ± 0.034	0.927 ± 0.01	1.03 ± 0.064	0.999 ± 0.044	0.99 ± 0.043	0.972 ± 0.045	1.12 ± 0.054	0.859 ± 0.041	0.637 ± 0.017	0.54 ± 0.079
HT1080 SOFT TISSUE	0.997 ± 0.044	1.06 ± 0.013	1.02 ± 0.017	1.05 ± 0.016	1.04 ± 0.016	1.02 ± 0.048	1.01 ± 0.021	1.05 ± 0.076	1.06 ± 0.045	1.06 ± 0.018	1.05 ± 0.022	1.07 ± 0.045	1 ± 0.028	1.05 ± 0.029	1.01 ± 0.032	1.02 ± 0.028
HU09 BONE	0.937 ± 0.082	0.937 ± 0.031	1.04 ± 0.1	1.04 ± 0.089	1 ± 0.056	1.04 ± 0.13	0.891 ± 0.043	0.798 ± 0.021	1.08 ± 0.08	1.07 ± 0.12	1.1 ± 0.0064	1.06 ± 0.065	0.988 ± 0.063	0.912 ± 0.08	0.697 ± 0.031	0.617 ± 0.027
HUO3N1 BONE	1.05 ± 0.044	0.978 ± 0.069	1.08 ± 0.038	1.084 ± 0.01	1.02 ± 0.037	1.06 ± 0.043	0.876 ± 0.15	1 ± 0.065	1.03 ± 0.027	1.07 ± 0.012	1.1 ± 0.041	1.1 ± 0.035	1.09 ± 0.074	1.05 ± 0.039	0.994 ± 0.064	0.943 ± 0.02
JIMT1 BREAST	0.991 ± 0.035	1.02 ± 0.04	1.05 ± 0.039	1.01 ± 0.024	1 ± 0.035	1.01 ± 0.066	0.907 ± 0.065	0.783 ± 0.019	1.02 ± 0.048	1.05 ± 0.016	1.019 ± 0.0045	1.018 ± 0.0065	1.04 ± 0.037	1.07 ± 0.06	1.06 ± 0.054	1.08 ± 0.032
JURKAT HAEMATOPOIETIC AND LYMPHOID TISSUE	0.997 ± 0.078	1.02 ± 0.061	0.936 ± 0.037	0.959 ± 0.017	0.933 ± 0.055	0.947 ± 0.025	1.01 ± 0.012	1.011 ± 0.0081	1.04 ± 0.026	1.04 ± 0.029	1.05 ± 0.024	1.02 ± 0.028	0.949 ± 0.025	0.932 ± 0.035	0.752 ± 0.041	0.549 ± 0.0064
KPD BONE	0.984 ± 0.055	1.08 ± 0.03	1.05 ± 0.02	1.03 ± 0.049	1.09 ± 0.06	1.08 ± 0.066	0.956 ± 0.08	0.951 ± 0.094	1.06 ± 0.038	1.02 ± 0.049	1.11 ± 0.03	1.13 ± 0.069	1.07 ± 0.017	1.12 ± 0.21	0.839 ± 0.023	0.691 ± 0.042
LM7 BONE	0.936 ± 0.046	1.07 ± 0.079	1.1 ± 0.034	1.1 ± 0.042	0.99 ± 0.057	1.06 ± 0.02	0.991 ± 0.022	0.955 ± 0.041	0.97 ± 0.065	1.03 ± 0.09	1.11 ± 0.04	1.1 ± 0.096	1.08 ± 0.061	1.13 ± 0.057	0.921 ± 0.095	0.905 ± 0.043
LNCAP PROSTATE	0.894 ± 0.055	0.981 ± 0.02	0.917 ± 0.086	0.981 ± 0.033	0.937 ± 0.061	0.891 ± 0.038	0.995 ± 0.035	0.951 ± 0.21	0.971 ± 0.034	0.971 ± 0.041	0.932 ± 0.065	0.882 ± 0.025	0.973 ± 0.035	0.932 ± 0.04	0.914 ± 0.05	0.856 ± 0.1
MCF7 BREAST	0.988 ± 0.053	0.921 ± 0.032	0.931 ± 0.049	0.962 ± 0.043	0.961 ± 0.057	0.946 ± 0.096	0.946 ± 0.061	0.916 ± 0.023	0.9422 ± 0.0083	0.957 ± 0.048	0.993 ± 0.02	1 ± 0.039	1.02 ± 0.052	1.02 ± 0.044	0.985 ± 0.02	1 ± 0.022
MDAMB134 BREAST	0.967 ± 0.017	0.963 ± 0.1	0.975 ± 0.028	1 ± 0.14	1.04 ± 0.19	0.966 ± 0.083	0.956 ± 0.071	0.806 ± 0.062	1.1 ± 0.12	0.848 ± 0.18	0.786 ± 0.071	0.831 ± 0.016	0.908 ± 0.096	0.914 ± 0.063	0.764 ± 0.04	0.471 ± 0.033
MDAMB157 BREAST	1 ± 0.11	0.991 ± 0.11	1.09 ± 0.034	1.04 ± 0.095	1.01 ± 0.064	1.008 ± 0.0098	0.951 ± 0.082	0.931 ± 0.041	1.02 ± 0.026	0.995 ± 0.13	0.952 ± 0.069	0.964 ± 0.062	1.01 ± 0.032	1.01 ± 0.057	0.938 ± 0.028	0.893 ± 0.059
MDAMB231 BREAST	0.9471 ± 0.0072	1.01 ± 0.032	0.986 ± 0.029	0.9838 ± 0.0088	0.96 ± 0.019	1.02 ± 0.012	1.013 ± 0.0062	1.01 ± 0.021	1 ± 0.031	0.99 ± 0.018	1.01 ± 0.014	1.01 ± 0.018	1.02 ± 0.041	1.01 ± 0.03	1 ± 0.018	0.941 ± 0.02
MDAMB361 BREAST	0.891 ± 0.12	0.823 ± 0.11	0.902 ± 0.096	0.874 ± 0.065	0.864 ± 0.028	0.711 ± 0.041	0.724 ± 0.096	0.672 ± 0.069	0.853 ± 0.098	0.812 ± 0.15	0.815 ± 0.058	0.921 ± 0.11	0.871 ± 0.032	0.909 ± 0.085	0.843 ± 0.055	0.846 ± 0.086
